Species on record: Rattus norvegicus
Experiment: DrugMatrix - Regimen: Daily Repeat
Assay type: toxicity, organism-based, Sprague-Dawley
Parameters: regimen Daily Repeat, gender Male, age 6-8 weeks
Conditions: in vivo, po, 400 mg/kg, route oral GAVAGE, dose level High, […]; for ABSOLUTE BASOPHIL / ABSOLUTE EOSINOPHIL / ABSOLUTE LYMPHOCYTE / ABSOLUTE MONOCYTE / ABSOLUTE SEGMENTED NEUTROPHIL / BASOPHIL / EOSINOPHIL / ERYTHROCYTE COUNT / HEMATOCRIT / HEMOGLOBIN / LEUKOCYTE COUNT / LYMPHOCYTE / MEAN CORPUSCULAR HEMOGLOBIN / MEAN CORPUSCULAR HEMOGLOBIN CONCENTRATION / MEAN CORPUSCULAR VOLUME / MONOCYTE / NEUTROPHIL / NUCLEATED RED BLOOD CELLS / PLATELET COUNT: tissue Blood; for ALANINE AMINOTRANSFERASE / ALBUMIN / ALKALINE PHOSPHATASE / ASPARTATE AMINOTRANSFERASE / BLOOD UREA NITROGEN / CARBON DIOXIDE / CHLORIDE / CHOLESTEROL / CREATINE PHOSPHOKINASE / CREATININE / GLUCOSE / LACTATE DEHYDROGENASE / LIPASE / PHOSPHORUS / POTASSIUM / SODIUM / TOTAL BILIRUBIN / TOTAL PROTEIN / URIC ACID: tissue Plasma

SMILES: COC(=O)[C@H](c1ccccc1Cl)N1CCc2sccc2C1 [CLOPIDOGREL]
- ABSOLUTE BASOPHIL (72 h, time 3 day): 0 CELLS/uL
- ABSOLUTE EOSINOPHIL (72 h, time 3 day): 86.67 CELLS/uL
- ABSOLUTE LYMPHOCYTE (72 h, time 3 day): 12550.67 CELLS/uL
- ABSOLUTE MONOCYTE (72 h, time 3 day): 229.67 CELLS/uL
- ABSOLUTE SEGMENTED NEUTROPHIL (72 h, time 3 day): 1366.33 CELLS/uL
- BASOPHIL (72 h, time 3 day): 0%
- EOSINOPHIL (72 h, time 3 day): 0.67%
- ERYTHROCYTE COUNT (72 h, time 3 day): 5.22 x10E6/uL
- HEMATOCRIT (72 h, time 3 day): 31.7%
- HEMOGLOBIN (72 h, time 3 day): 12.8 G/DL
- LEUKOCYTE COUNT (72 h, time 3 day): 14.23 x10E3/uL
- LYMPHOCYTE (72 h, time 3 day): 88%
- MEAN CORPUSCULAR HEMOGLOBIN (72 h, time 3 day): 24.5 pg
- MEAN CORPUSCULAR HEMOGLOBIN CONCENTRATION (72 h, time 3 day): 40.4 G/DL
- MEAN CORPUSCULAR VOLUME (72 h, time 3 day): 60.77 fL
- MONOCYTE (72 h, time 3 day): 1.67%
- NEUTROPHIL (72 h, time 3 day): 9.67%
- NUCLEATED RED BLOOD CELLS (72 h, time 3 day): 0 /100WBC
- PLATELET COUNT (72 h, time 3 day): 1169.33 x10E3/uL
- ALANINE AMINOTRANSFERASE (72 h, time 3 day): 98.67 u/L
- ALBUMIN (72 h, time 3 day): 3.97 G/DL
- ALKALINE PHOSPHATASE (72 h, time 3 day): 463 u/L
- ASPARTATE AMINOTRANSFERASE (72 h, time 3 day): 113 u/L
- BLOOD UREA NITROGEN (72 h, time 3 day): 13.67 mg/dL
- CARBON DIOXIDE (72 h, time 3 day): 27.67 mmol/L
- CHLORIDE (72 h, time 3 day): 102.67 MEQ/L
- CHOLESTEROL (72 h, time 3 day): 80 mg/dL
- CREATINE PHOSPHOKINASE (72 h, time 3 day): 460.67 u/L
- CREATININE (72 h, time 3 day): 0.21 mg/dL
- GLUCOSE (72 h, time 3 day): 145 mg/dL
- LACTATE DEHYDROGENASE (72 h, time 3 day): 361 u/L
- LIPASE (72 h, time 3 day): 14.33 u/L
- PHOSPHORUS (72 h, time 3 day): 10.53 mg/dL
- POTASSIUM (72 h, time 3 day): 6.16 MEQ/L
- SODIUM (72 h, time 3 day): 141.23 MEQ/L
- TOTAL BILIRUBIN (72 h, time 3 day): 0.23 mg/dL
- TOTAL PROTEIN (72 h, time 3 day): 5.47 G/DL
- URIC ACID (72 h, time 3 day): 1.13 mg/dL
- ABSOLUTE BASOPHIL (120 h, time 5 day): 0 CELLS/uL
- ABSOLUTE EOSINOPHIL (120 h, time 5 day): 131.33 CELLS/uL
- ABSOLUTE LYMPHOCYTE (120 h, time 5 day): 15650.33 CELLS/uL
- ABSOLUTE MONOCYTE (120 h, time 5 day): 297.33 CELLS/uL
- ABSOLUTE SEGMENTED NEUTROPHIL (120 h, time 5 day): 2887.67 CELLS/uL
- BASOPHIL (120 h, time 5 day): 0%
- EOSINOPHIL (120 h, time 5 day): 0.67%
- ERYTHROCYTE COUNT (120 h, time 5 day): 5.21 x10E6/uL
- HEMATOCRIT (120 h, time 5 day): 31.5%
- HEMOGLOBIN (120 h, time 5 day): 12.6 G/DL
- LEUKOCYTE COUNT (120 h, time 5 day): 18.97 x10E3/uL
- LYMPHOCYTE (120 h, time 5 day): 84%
- MEAN CORPUSCULAR HEMOGLOBIN (120 h, time 5 day): 24.17 pg
- MEAN CORPUSCULAR HEMOGLOBIN CONCENTRATION (120 h, time 5 day): 40 G/DL
- MEAN CORPUSCULAR VOLUME (120 h, time 5 day): 60.37 fL
- MONOCYTE (120 h, time 5 day): 1.67%
- NEUTROPHIL (120 h, time 5 day): 13.67%
- NUCLEATED RED BLOOD CELLS (120 h, time 5 day): 0 /100WBC
- PLATELET COUNT (120 h, time 5 day): 1167.67 x10E3/uL
- ALANINE AMINOTRANSFERASE (120 h, time 5 day): 76 u/L
- ALBUMIN (120 h, time 5 day): 3.8 G/DL
- ALKALINE PHOSPHATASE (120 h, time 5 day): 362.67 u/L
- ASPARTATE AMINOTRANSFERASE (120 h, time 5 day): 110.67 u/L
- BLOOD UREA NITROGEN (120 h, time 5 day): 16.33 mg/dL
- CARBON DIOXIDE (120 h, time 5 day): 26 mmol/L
- CHLORIDE (120 h, time 5 day): 101 MEQ/L
- CHOLESTEROL (120 h, time 5 day): 86.67 mg/dL
- CREATINE PHOSPHOKINASE (120 h, time 5 day): 941 u/L
- CREATININE (120 h, time 5 day): 0.15 mg/dL
- GLUCOSE (120 h, time 5 day): 135 mg/dL
- LACTATE DEHYDROGENASE (120 h, time 5 day): 452.33 u/L
- LIPASE (120 h, time 5 day): 12.33 u/L
- PHOSPHORUS (120 h, time 5 day): 12.5 mg/dL
- POTASSIUM (120 h, time 5 day): 5.63 MEQ/L
- SODIUM (120 h, time 5 day): 141.87 MEQ/L
- TOTAL BILIRUBIN (120 h, time 5 day): 0.2 mg/dL
- TOTAL PROTEIN (120 h, time 5 day): 5.4 G/DL
- URIC ACID (120 h, time 5 day): 1.1 mg/dL
